pIC50: −log10 of the molar value.
Biological target: T1, human DGAT2 (Homo sapiens, UniProt Q96PD7)
T1 construct: made in house; host or cells: Sf-9 insect cells (baculovirus), membrane fraction
T1 sequence (Q96PD7 1-388): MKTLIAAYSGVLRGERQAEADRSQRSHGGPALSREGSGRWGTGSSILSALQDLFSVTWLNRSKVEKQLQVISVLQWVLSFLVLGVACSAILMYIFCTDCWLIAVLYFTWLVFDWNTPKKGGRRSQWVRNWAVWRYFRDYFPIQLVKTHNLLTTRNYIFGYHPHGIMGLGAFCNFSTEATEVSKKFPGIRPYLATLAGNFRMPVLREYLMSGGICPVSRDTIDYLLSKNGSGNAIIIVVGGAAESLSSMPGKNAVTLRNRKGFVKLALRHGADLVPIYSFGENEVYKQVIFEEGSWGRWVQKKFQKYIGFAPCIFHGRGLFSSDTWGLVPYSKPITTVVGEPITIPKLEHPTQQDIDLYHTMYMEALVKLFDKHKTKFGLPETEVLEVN
Assay: DGAT2 Enzymatic Activity Assay
Assay type: biochemical
Details: membrane prep of Sf-9 insect cells expressing hDGAT2; 13C18-triolein product by LC/MS/MS; 25 μM diolein, 5 μM 13C oleoyl-CoA
Protocol: Sf-9 insect cells were maintained in Grace's insect cell culture medium with 10% heated-inactivated fetal bovine serum, 1% Pluronic F-68 and 0.14 μg/ml Kanamycine sulfate at 27° C. in a shaker incubator. After infection with untagged baculovirus expressing human DGAT2 (hDGAT2) at multiplicity of infection (MOI) 3 for 48 hours, cells were harvested. Cell pellets were suspended in buffer containing 10 mM Tris-HCl pH 7.5, 1 mM EDTA, 250 mM sucrose and Complete Protease Inhibitor Cocktail (Sigma Aldrich), and sonicated on ice. Cell debris were removed by centrifugation at 2000×g for 15 minutes. Membrane fractions were isolated by ultracentrifugation (100,000×g), resuspended in the same buffer, and frozen (−80° C.) for later use. The protein concentration was determined with the Pierce™ BCA Protein Assay Kit (Thermo Fisher Scientific).
LC/MS/MS analyses were performed using Thermal Fisher's LX4-TSQ Vantage system. This system consists of an Agilent binary high-performance liquid chromatography (HPLC) pump and a TSQ Vantage triple quadrupole MS/MS instrument. For each sample, 2 μL samples from the top organic layer of in-plate liquid-liquid extraction were injected onto a Thermo Betabasic C4 column (2.1 mm×20 mm, 5 μm particle size). The samples were then eluted using the following conditions; mobile phase: Isopropanol:acetonitrile/10 mM ammonium formate=50/35/15 (v/v/v), flow rate: 0.8 mL/min, temperature: 25° C. Data was acquired in positive mode using a heated electrospray ionization (HESI) interface. […] The peak area was integrated by Xcalibur Quan software. The ratio between the ^13C18triolein generated in the reaction and spiked in internal standard ^13C21-triolein was used to generate percentage inhibition and IC50 values. Compound percentage inhibition was calculated by the following formula: Inhibition %=1−[(compound response−low control)/(high control−low control)]×100%.
DGAT2 activity was determined by measuring the amount of enzymatic product ^13C18-triolein (^13C-1,2,3-Tri(cis-9-octadecenoyl)glycerol) using the membrane prep mentioned above. The assay was carried out in ABgene 384-well assay plates in a final volume of 25 μL at rt.

pIC50 | SMILES
8.01 | CC1(NC(=O)c2cc3cc(Oc4ncccc4OCC(F)(F)F)ccn3n2)CCS(=O)(=O)CC1 [Example 1, N-(4-Methyl-1,1-dioxidotetrahydro-2H-thiopyran-4-yl)-5-((3-(2,2,2-trifluoroethoxy)pyridin-2-yl)oxy)pyrazolo[1,5-a]pyridine-2-carboxamide]
6.56 | C[C@@]1(NC(=O)c2nn3ccc(Oc4ncc(F)cc4OCC(F)(F)F)cc3c2F)CCS(=O)(=O)C1 [Example 29, (R)-3-Fluoro-5-((5-fluoro-3-(2,2,2-trifluoroethoxy)pyridin-2-yl)oxy)-N-(3-methyl-1,1-dioxidotetrahydrothiophen-3-yl)pyrazolo[1,5-a]pyridine-2-carboxamide]
7.32 | CC1(NC(=O)c2nn3ccc(Oc4ncc(F)cc4OCC(F)(F)F)cc3c2C2CC2)CCS(=O)(=O)CC1 [Example 54, 3-cyclopropyl-5-((5-fluoro-3-(2,2,2-trifluoroethoxy)pyridin-2-yl)oxy)-N-(4-methyl-1,1-dioxidotetrahydro-2H-thiopyran-4-yl)pyrazolo[1,5-a]pyridine-2-carboxamide]
6.51 | O=C(NC1CCCN(CC(F)(F)F)C1=O)c1cc2cc(Oc3ncccc3OCC(F)(F)F)ccn2n1 (centres unmarked) [Example 4, N-(2-Oxo-1-(2,2,2-trifluoroethyl)piperidin-3-yl)-5-((3-(2,2,2-trifluoroethoxy)pyridin-2-yl)oxy)pyrazolo[1,5-a]pyridine-2-carboxamide]
8.22 | Cc1cc(Oc2ncc(F)cc2OCC(F)(F)F)cc2cc(C(=O)NC3(C)CCS(=O)(=O)CC3)nn12 [Example 59, 5-((5-Fluoro-3-(2,2,2-trifluoroethoxy)pyridin-2-yl)oxy)-7-methyl-N-(4-methyl-1,1-dioxidotetrahydro-2H-thiopyran-4-yl)pyrazolo[1,5-a]pyridine-2-carboxamide]
6.83 | CC1(NC(=O)c2cc3cc(Oc4ncccc4OCC(F)(F)F)ccn3n2)CS(=O)(=O)C1 [Example 5, N-(3-Methyl-1,1-dioxidothietan-3-yl)-5-((3-(2,2,2-trifluoroethoxy)pyridin-2-yl)oxy)pyrazolo[1,5-a]pyridine-2-carboxamide]
< 5.00 | COc1cccc(COc2ccn3nc(C(=O)NC4(C)CCS(=O)(=O)CC4)cc3n2)n1 [Example 68, 5-((6-Methoxypyridin-2-yl)methoxy)-N-(4-methyl-1,1-dioxidotetrahydro-2H-thiopyran-4-yl)pyrazolo[1,5-a]pyrimidine-2-carboxamide]
8.46 | Cc1cn2nc(C(=O)NC3(C)CCS(=O)(=O)CC3)cc2cc1Oc1ncc(F)cc1OCC(F)(F)F [Example 60, 5-((5-Fluoro-3-(2,2,2-trifluoroethoxy)pyridin-2-yl)oxy)-6-methyl-N-(4-methyl-1,1-dioxidotetrahydro-2H-thiopyran-4-yl)pyrazolo[1,5-a]pyridine-2-carboxamide]
8.30 | CC1(NC(=O)c2nn3ccc(Oc4ncc(C#N)cc4OCC(F)(F)F)cc3c2Cl)CCS(=O)(=O)CC1 [Example 41, 3-Chloro-5-((5-cyano-3-(2,2,2-trifluoroethoxy)pyridin-2-yl)oxy)-N-(4-methyl-1,1-dioxidotetrahydro-2H-thiopyran-4-yl)pyrazolo[1,5-a]pyridine-2-carboxamide]
6.48 | CC(O)c1c(C(=O)NC2(C)CCS(=O)(=O)CC2)nn2ccc(Oc3ncccc3OCC(F)(F)F)cc12 (single isomer, unassigned) [Example 52b, 3-(1-Hydroxyethyl)-N-(4-methyl-1,1-dioxidotetrahydro-2H-thiopyran-4-yl)-5-((3-(2,2,2-trifluoroethoxy)pyridin-2-yl)oxy)pyrazolo[1,5-a]pyridine-2-carboxamide]
6.68 | C[C@@]1(NC(=O)c2cc3cc(Oc4nccnc4OCC(F)F)ccn3n2)CCS(=O)(=O)C1 [Example 8, (R)-5-((3-(2,2-Difluoroethoxy)pyrazin-2-yl)oxy)-N-(3-methyl-1,1-dioxidotetrahydrothiophen-3-yl)pyrazolo[1,5-a]pyridine-2-carboxamide]
7.74 | CC1(NC(=O)c2nn3ccc(Oc4nccnc4OCC(F)(F)F)cc3c2Cl)CCS(=O)(=O)CC1 [Example 35, 3-Chloro-N-(4-methyl-1,1-dioxidotetrahydro-2H-thiopyran-4-yl)-5-((3-(2,2,2-trifluoroethoxy)pyrazin-2-yl)oxy)pyrazolo[1,5-a]pyridine-2-carboxamide]
7.09 | COc1ccc(Cl)c(COc2ccn3nc(C(=O)NC4(C)CCS(=O)(=O)CC4)cc3n2)n1 [Example 70, 5-((3-Chloro-6-methoxypyridin-2-yl)methoxy)-N-(4-methyl-1,1-dioxidotetrahydro-2H-thiopyran-4-yl)pyrazolo[1,5-a]pyrimidine-2-carboxamide]
< 5.00 | CC1(NC(=O)c2cc3cc(Oc4ncc(C(O)C5CC5)cc4OCC(F)(F)F)ccn3n2)CCS(=O)(=O)CC1 (single isomer, unassigned) [Example 43b, 5-((5-(Cyclopropyl(hydroxy)methyl)-3-(2,2,2-trifluoroethoxy)pyridin-2-yl)oxy)-N-(4-methyl-1,1-dioxidotetrahydro-2H-thiopyran-4-yl)pyrazolo[1,5-a]pyridine-2-carboxamide]
6.88 | CC1(NC(=O)c2nn3ccc(Oc4ncc(Cl)cc4OCC(F)F)nc3c2F)CCS(=O)(=O)CC1 [Example 61, 5-((5-Chloro-3-(2,2-difluoroethoxy)pyridin-2-yl)oxy)-3-fluoro-N-(4-methyl-1,1-dioxidotetrahydro-2H-thiopyran-4-yl)pyrazolo[1,5-a]pyrimidine-2-carboxamide]
6.09 | C[C@@]1(NC(=O)c2nn3ccc(Oc4ncccc4OCC(F)(F)F)cc3c2F)CCS(=O)(=O)C1 [Example 23, (R)-3-Fluoro-N-(3-methyl-1,1-dioxidotetrahydrothiophen-3-yl)-5-((3-(2,2,2-trifluoroethoxy)pyridin-2-yl)oxy)pyrazolo[1,5-a]pyridine-2-carboxamide]
6.58 | CCOc1cccc(COc2ccn3nc(C(=O)NC4(C)CCS(=O)(=O)CC4)cc3n2)n1 [Example 69, 5-((6-Ethoxypyridin-2-yl)methoxy)-N-(4-methyl-1,1-dioxidotetrahydro-2H-thiopyran-4-yl)pyrazolo[1,5-a]pyrimidine-2-carboxamide]
6.89 | CC1(NC(=O)c2nn3ccc(Oc4ncc(F)cc4OCC(F)(F)F)cc3c2F)CS(=O)(=O)C1 [Example 28, 3-Fluoro-5-((5-fluoro-3-(2,2,2-trifluoroethoxy)pyridin-2-yl)oxy)-N-(3-methyl-1,1-dioxidothietan-3-yl)pyrazolo[1,5-a]pyridine-2-carboxamide]
6.64 | CC1(NC(=O)c2cc3cc(Oc4ncc(C(O)C5CC5)cc4OCC(F)(F)F)ccn3n2)CCS(=O)(=O)CC1 (single isomer, unassigned) [Example 43a, 5-((5-(Cyclopropyl(hydroxy)methyl)-3-(2,2,2-trifluoroethoxy)pyridin-2-yl)oxy)-N-(4-methyl-1,1-dioxidotetrahydro-2H-thiopyran-4-yl)pyrazolo[1,5-a]pyridine-2-carboxamide]
7.11 | CC1(NC(=O)c2nn3ccc(Oc4nccnc4OCC(F)F)cc3c2Cl)CS(=O)(=O)C1 [Example 30, 3-Chloro-5-((3-(2,2-difluoroethoxy)pyrazin-2-yl)oxy)-N-(3-methyl-1,1-dioxidothietan-3-yl)pyrazolo[1,5-a]pyridine-2-carboxamide]
